Results on 16 molecules are retold here after US20230346853A1, “Probiotic Lyophilizate Reactivation Composition for Improving Intestinal Survivability and Adhesion of Probiotics” (COSMAX NBT, INC., priority 2021, published 2023).

Where two headings read alike, the source gives them in different places.

In experiment [1] the test system is Lactobacillus plantarum HAC03. As to the kind of experiment: in vitro Simulated Stomach Duodenum Passage (SSDP) probiotic survivability, lyophilized HAC03. Particulars: for survivability compared with fresh cells, in words / Artificial Bile Juice Survivability (%) / Artificial Bile Juice log CFU/mL / Artificial Gastric Juice Survivability (%) / Artificial Gastric Juice log CFU/mL: Table 3; for Artificial Bile Juice Survivability (%) / Artificial Bile Juice log CFU/mL / Artificial Gastric Juice Survivability (%) / Artificial Gastric Juice log CFU/mL: carbohydrate mixed with HAC03 lyophilizate; for viability at 100000 µM: Lactiplantibacillus plantarum; for intestinal survivability (acid resistance and bile resistance) in words: compared to fresh bacteria / distilled water. It counts as cell-based. As for the experimental part:
The HAC03 strain was mixed with each of the single compositions and 1 mL of distilled water for 1 min. The compositions were formulated to have a final concentration of 0.1 M when dissolved in 1 ml of distilled water. Thereafter, 9 mL of distilled water adjusted to have a pH of 2.5 was added to each mixture. The pH was readjusted back to 2.5 in case of an increased pH due to the nature of some of the single ingredients (in order to not affect the survival of the probiotics). After adjusting the pH to 2.5, the tubes were incubated at 37° C. for 1 hour to apply the low-pH gastric stress condition. […] During the gastrointestinal tract assay, the samples were taken immediately, 1 hour, and […] after the incubation (t=0, 1, and 2). The probiotic survivability of each sample after gastric stress and bile stress was calculated by counting viable colonies.

Experiment [2] has as its system Lactobacillus plantarum HAC03. Kind of experiment: Zeta potential of lyophilized probiotics mixed with single ingredients (screening). To be noted: 0.1 M ingredient, rehydrated 1 min, pH 2.5. It counts as cell-based. As for the experimental part:
In this experimental example, Lactobacillus plantarum HAC03 (accession number: KCTC13242BP, the Korean Research Institute of Bioscience and Biotechnology) (hereinafter referred to as “HAC03”), which was described in Korean Patent Application No. 10-2017-0051574, was used as a probiotic strain.
Afterwards, 2 mL of pH 2.5 distilled water was added to each sample, the pH was re-adjusted using HCl 0.1 N, and 800 μl of the calibrated sample was loaded in DTS1080 cuvettes. The electrophoretic mobility was measured by the Zetaizer Nano ZEN 3600 (Malvern Panalytica, UK) after 2 minutes of equilibration and the Smoluchowski equation was used to convert the data into zetapotential values.
In this experiment, zeta potentials were measured at a pH of 2.5 in consideration of the highly acidic stomach environment, which is one of the initial hurdles that drastically reduce the survivability of the bacteria.

Setting [3] is: HAC03, 1 h, pH 2.5, read-out: Stomach Survivability (%).
[4] abbreviates: HAC03, 2 h, pH 6, read-out: Duodenum Survivability (%).
[5] abbreviates: Table 1, 0.1 M ingredient, pH 2.5, 37° C., 1 hour.
The mark [6] stands for this setting: Table 1, 0.1 M ingredient, then bile salts (10% ox gall) and pH 6.0 synthetic duodenum juice, 2 hours.
[7] abbreviates: HAC03, Table 1, 0.1 M ingredient, pH 2.5, 37° C., 1 hour, read-out: Stomach Survivability (%).
Setting [8] is: HAC03, Table 1, 0.1 M ingredient, then bile salts (10% ox gall) and pH 6.0 synthetic duodenum juice, 2 hours, read-out: Duodenum Survivability (%).

Take `OC[C@H]1O[C@H](O[C@H]2[C@H](O)[C@@H](O)C(O)O[C@@H]2CO)[C@H](O)[C@@H](O)[C@@H]1O` (mixture of isomers) [Maltose]: in experiment [1], the “survivability compared with fresh cells, in words” value was “survivability similar to or higher than that of fresh cells”; the “Artificial Bile Juice Survivability (%)” value is 33.79%; the “Artificial Bile Juice log CFU/mL” value was 7.61 ± 0.13 log CFU/mL; the “Artificial Gastric Juice Survivability (%)” value is 85.43%. For the same molecule, in experiment [1], the “Artificial Gastric Juice log CFU/mL” value is given as 8.02 ± 0.05 log CFU/mL.
Turning to `O=C[C@@H](O)[C@H](O)[C@H](O)CO` [Arabinose], in experiment [1], the “Artificial Bile Juice Survivability (%)” value is reported as 9.45%, the “Artificial Bile Juice log CFU/mL” value is 7.02 ± 0.35 log CFU/mL, the “Artificial Gastric Juice Survivability (%)” value is recorded as 17.78% and the “Artificial Gastric Juice log CFU/mL” value is on record as 7.12 ± 0.67 log CFU/mL.
`O=C(CO)[C@@H](O)[C@H](O)[C@H](O)CO` [Fructose]: in experiment [1], the “survivability compared with fresh cells, in words” value is reported as “survivability similar to or higher than that of fresh cells”; the “Artificial Bile Juice Survivability (%)” value is 20.73%; the “Artificial Bile Juice log CFU/mL” value is 7.27 ± 0.48 log CFU/mL; the “Artificial Gastric Juice Survivability (%)” value is recorded as 46.18%. Besides, the “Artificial Gastric Juice log CFU/mL” value in experiment [1] is reported as 7.67 ± 0.37 log CFU/mL.
`N=C(N)NCCC[C@H](N)C(=O)O` [L-Arginine, L-arginine]: in experiment [2], the “zeta potential of lyophilized HAC03 mixed with the ingredient (sign, FIG. 1)” value (shortened to “zeta potential”) is “positive zeta potentials”. Further, the viability at 100000 µM in experiment [1] (setting [3]) is 0.13%; in experiment [1] (setting [4]), 0.08%. In addition, the “Stomach log CFU/mL” value in experiment [1] (setting [5]) is listed as 4.00 ± 0.00 log CFU/mL. For the same molecule, in experiment [1] (setting [6]), the “Duodenum log CFU/mL” value is 3.73 ± 0.34 log CFU/mL. In addition, the “intestinal survivability (acid resistance and bile resistance) in words” value (“intestinal survivability” below) in experiment [1] (Table 1) is “intestinal survivability far inferior to that of distilled water”.
Regarding `O=C1O[C@H]([C@@H](O)CO)C(O)=C1O` [L-Ascorbic acid, L-ascorbic acid], in experiment [2], the “zeta potential” value is listed as “positive zeta potentials”. In addition, the viability at 100000 µM was 0.4% in experiment [1] (setting [3]) and 0.1% in experiment [1] (setting [4]). In addition, the “Stomach log CFU/mL” value in experiment [1] (setting [5]) is recorded as 4.08 ± 0.15 log CFU/mL. Further, the “Duodenum log CFU/mL” value in experiment [1] (setting [6]) was 3.49 ± 0.00 log CFU/mL. Moreover, the “intestinal survivability” value in experiment [1] (Table 1) is “intestinal survivability far inferior to that of distilled water”.
As to `N[C@@H](CC(=O)O)C(=O)O` [L-Aspartic acid, L-aspartic acid], in experiment [2], the “zeta potential” value was “positive zeta potentials”. Further, the values for the viability at 100000 µM in experiment [1] (setting [7]) and in experiment [1] (setting [8]) were 29.9% and 1.86%, respectively. Moreover, the “Stomach log CFU/mL” value in experiment [1] (setting [5]) is 7.06 ± 0.56 log CFU/mL. Also, the “Duodenum log CFU/mL” value in experiment [1] (setting [6]) is 5.80 ± 0.64 log CFU/mL. Also, the “intestinal survivability” value in experiment [1] (Table 1) is reported as “intestinal survivability far inferior to that of distilled water”.
In the case of `N[C@@H](Cc1c[nH]cn1)C(=O)O` [L-Histidine, L-histidine], in experiment [2], the “zeta potential” value is reported as “negative zeta potentials”. The figures for the viability at 100000 µM in experiment [1] (setting [7]) and in experiment [1] (setting [8]) were 56.6% and 27.2%, respectively. In addition, the “Stomach log CFU/mL” value in experiment [1] (setting [5]) is listed as 7.83 ± 0.11 log CFU/mL. For the same molecule, the “Duodenum log CFU/mL” value in experiment [1] (setting [6]) is 7.52 ± 0.08 log CFU/mL. The “intestinal survivability” value in experiment [1] (Table 1) was “increased in acid resistance and bile resistance”.
Consider `NCCC[C@H](N)C(=O)O` [L-Ornithine, L-ornithine], for which, in experiment [2], the “zeta potential” value is listed as “negative zeta potentials”. Moreover, the “Stomach log CFU/mL” value in experiment [1] (setting [5]) was 7.75 ± 0.02 log CFU/mL. Besides, the “Duodenum log CFU/mL” value in experiment [1] (setting [6]) is 7.57 ± 0.03 log CFU/mL.
As to `N[C@@H](Cc1ccc(O)cc1)C(=O)O` [L-Tyrosine, L-tyrosine], the “zeta potential” value in experiment [2] is on record as “negative zeta potentials”. Moreover, the viability at 100000 µM is 73.5% in experiment [1] (setting [7]) and 33.9% in experiment [1] (setting [8]). Also, in experiment [1] (setting [5]), the “Stomach log CFU/mL” value is listed as 7.98 ± 0.04 log CFU/mL. Besides, in experiment [1] (setting [6]), the “Duodenum log CFU/mL” value is 7.65 ± 0.01 log CFU/mL. Also, in experiment [1] (Table 1), the “intestinal survivability” value is “increased in acid resistance and bile resistance”.
Take `O=C(O)CC(O)C(=O)O` (centres unmarked) [Malic acid, malic acid]: the “zeta potential” value in experiment [2] is “positive zeta potentials”. Further, the viability at 100000 µM in experiment [1] (setting [7]) is less than 0.01%; in experiment [1] (setting [8]), less than 0.003%. In addition, the “Stomach log CFU/mL” value in experiment [1] (setting [5]) is recorded as less than 3.99 ± 0.00 log CFU/mL. Besides, the “Duodenum log CFU/mL” value in experiment [1] (setting [6]) is on record as less than 3.49 ± 0.00 log CFU/mL. For the same molecule, the “intestinal survivability” value in experiment [1] (Table 1) is given as “intestinal survivability far inferior to that of distilled water”.
Regarding `OC[C@@H](O)[C@@H](O)[C@H](O)[C@H](O)CO` [Mannitol], in experiment [1], the “Artificial Bile Juice Survivability (%)” value is 11.77%, the “Artificial Bile Juice log CFU/mL” value is on record as 6.90 ± 0.44 log CFU/mL, the “Artificial Gastric Juice Survivability (%)” value was 20.04% and the “Artificial Gastric Juice log CFU/mL” value was 7.18 ± 0.32 log CFU/mL.
On to `C[C@H](O)[C@H](O)[C@@H](O)[C@@H](O)C=O` [Rhamnose], for which, in experiment [1], the “Artificial Bile Juice Survivability (%)” value is recorded as 18.25%, the “Artificial Bile Juice log CFU/mL” value is on record as 7.53 ± 0.08 log CFU/mL, the “Artificial Gastric Juice Survivability (%)” value is recorded as 40.75% and the “Artificial Gastric Juice log CFU/mL” value is given as 7.87 ± 0.10 log CFU/mL.
`OC[C@@H](O)[C@@H](O)[C@H](O)[C@@H](O)CO` [Sorbitol]: in experiment [1], the “survivability compared with fresh cells, in words” value is reported as “survivability similar to or higher than that of fresh cells”; the “Artificial Bile Juice Survivability (%)” value is given as 40.46%; the “Artificial Bile Juice log CFU/mL” value is 7.69 ± 0.09 log CFU/mL; the “Artificial Gastric Juice Survivability (%)” value is given as 82.06%. In addition, the “Artificial Gastric Juice log CFU/mL” value in experiment [1] was 8.00 ± 0.05 log CFU/mL.
Consider `OC[C@H]1O[C@@](CO)(O[C@H]2O[C@H](CO)[C@@H](O)[C@H](O)[C@H]2O)[C@@H](O)[C@@H]1O` [Sucrose], for which, in experiment [1], the “survivability compared with fresh cells, in words” value is recorded as “survivability similar to or higher than that of fresh cells”; the “Artificial Bile Juice Survivability (%)” value is on record as 42.99%; the “Artificial Bile Juice log CFU/mL” value was 7.71 ± 0.13 log CFU/mL; the “Artificial Gastric Juice Survivability (%)” value is 80.90%. Besides, the “Artificial Gastric Juice log CFU/mL” value in experiment [1] is 7.99 ± 0.13 log CFU/mL.
`OC[C@H]1O[C@H](O[C@H]2O[C@H](CO)[C@@H](O)[C@H](O)[C@H]2O)[C@H](O)[C@@H](O)[C@@H]1O` [Trehalose]: in experiment [1], the “survivability compared with fresh cells, in words” value is “survivability similar to or higher than that of fresh cells”; the “Artificial Bile Juice Survivability (%)” value is 28.10%; the “Artificial Bile Juice log CFU/mL” value was 7.36 ± 0.03 log CFU/mL; the “Artificial Gastric Juice Survivability (%)” value is reported as 54.75%. Moreover, the “Artificial Gastric Juice log CFU/mL” value in experiment [1] is 7.65 ± 0.05 log CFU/mL.
Take `O=C[C@H](O)[C@@H](O)[C@H](O)CO` [Xylose]: in experiment [1], the “Artificial Bile Juice Survivability (%)” value was 8.47%, the “Artificial Bile Juice log CFU/mL” value is reported as 6.97 ± 0.49 log CFU/mL, the “Artificial Gastric Juice Survivability (%)” value is given as 27.36% and the “Artificial Gastric Juice log CFU/mL” value is on record as 7.50 ± 0.25 log CFU/mL.
